Reference: paper PMC11614538, “The proline-rich antimicrobial peptide B7-005: low bacterial resistance, safe for human cells and effective in zebrafish embryo bacteraemia model” (Open Biology, 2024)
Residues, ends and D or L forms follow the SMILES beside them.

Key:
MEC-1 cells = test: Cell viability MTT, MEC-1; type: cell-based, human; conditions: MEC-1, 24 h, RPMI, n ≥ 9
Experimental: (§1) Chronic lymphocytic leukaemia-derived MEC-1 cells were cultured in suspension using complete RPMI (EuroClone), supplemented with 100 U ml^−1 penicillin (Sigma), 100 μg ml^−1 streptomycin (Sigma), 2 mM L-glutamine and 10% (v/v) foetal bovine serum (FBS, EuroClone). A549 human lung carcinoma epithelial cells and immortalized human keratinocytes (HaCaT) were grown in adhesion in complete high glucose Dulbecco’s MEM (DMEM, EuroClone) supplemented with 100 U ml^−1 penicillin (Sigma), […] streptomycin (Sigma), 2 mM L-glutamine and 10% (v/v) of FBS. […] All cell lines were counted in a Bürker chamber and diluted to the desired working concentrations.
(§2) Cell viability was evaluated by tetrazolium salt (MTT, or MTS for HUVECs only) tests. […] The next day, absorbance was measured at 570 nm using a Nanoquant Infinite-M200Pro plate reader (Tecan, Switzerland).
(§3) HUVECs, 7500 cells per well, were seeded in HESFM with 10% FBS in a 96-well flat-bottomed microtitre plate (EuroClone SpA, Italy). […] The plate was then incubated for 2 h at 37°C in a humidified 5% CO2 atmosphere, and the absorbance was measured at 490 nm, using a spectrophotometer (PowerWaveX, Bio-Tek Instruments). The cytotoxicity was calculated by comparing the absorbance of peptide-treated samples with that of the untreated control and expressed in percentage of vitality. […]

E. coli ATCC 25922 = test: MIC against E. coli ATCC 25922 in the presence of human serum; type: cell-based, Escherichia coli
Experimental: Escherichia coli ATCC 25922 was purchased from the American Type Culture Collection (ATCC) (Manassas, Virginia, USA) and stored at −80°C as glycerol stock until use. Bacterial cultures were grown overnight in sterile Müller–Hinton broth (MHB) (Difco Inc.) at 37°C under agitation (140 r.p.m.). The next day, the cultures were diluted 1 : 30 in new MHB and incubated as described above for about 2 h (mean logarithmic phase) until they reached an optical density at 600 nm of about 0.3 and then diluted in fresh MHB to the desired concentrations.
The effects of human serum on the antimicrobial activity of B7-005 were assessed by performing a minimum inhibitory concentration (MIC) assay with some modifications. Non-heat-inactivated human serum (Merk Life Science S.r.l., USA) was diluted to 50%, 40%, 30%, 25%, and 20% (v/v) in MHB and the solutions were aliquoted into the wells of a round-bottomed 96-well microtitre plate (Sarstedt, Milan, Italy). Samples with no serum were used for comparison. B7-005 was diluted in MHB added with the proper amount of serum to a concentration of 128 μM, added to the first column of the plate and serially diluted twofold in MHB, added with the proper amount of serum, in the subsequent wells in a final volume of 50 μl. Then 50 μl of a mid-log suspension of 5 × 10^5 CFU ml^−1 E. coli ATCC 25922 cells prepared in MHB added with the proper amount of serum was added to each well of the plate, halving the final concentration of bacteria and peptide. The plate was incubated at 37°C for 18 h. The MIC value was calculated as the lowest concentration of the compound resulting in complete inhibition of visible bacterial growth. MIC values were determined by performing at least three independent experiments (n ≥ 3).

HUVECs = test: Cell viability MTS, HUVEC; type: cell-based, human; conditions: 24 h
Experimental: as §1, §2, §3

[1] = ref [20]; cited from earlier work
Description: The bioavailability in human serum of a peptide intended for clinical systemic use is a critical parameter for the success of peptide-based drugs. […] However, irreversible sequestration of the peptide by serum proteins at higher serum concentrations could also impair its antimicrobial activity. To check if the peptide maintained its availability under conditions closer to the clinical o ...

SMILES: CC[C@H](C)[C@H](NC(=O)[C@H](CCCNC(=N)N)NC(=O)[C@@H](N)Cc1c[nH]c2ccccc12)C(=O)N[C@@H](CCCNC(=N)N)C(=O)N[C@@H](CCCNC(=N)N)C(=O)N[C@@H](CCCNC(=N)N)C(=O)N[C@@H](Cc1c[nH]c2ccccc12)C(=O)N1CCC[C@H]1C(=O)N[C@@H](CCCNC(=N)N)C(=O)N[C@@H](CC(C)C)C(=O)N1CCC[C@H]1C(=O)N[C@@H](CCCNC(=N)N)C(=O)N1CCC[C@H]1C(=O)N[C@@H](CCCNC(=N)N)C(=O)N[C@@H](Cc1c[nH]c2ccccc12)C(=O)N[C@@H](CCCNC(=N)N)C(=O)O [B7-005] (H-WRIRRRWPRLPRPRWR-OH)
- IC50 (MEC-1 cells): ~48 µM
- MIC of B7-005 (E. coli ATCC 25922; 0% human serum in MH medium, visual, 18 h at 37°C, mode of n = 3): 1 µM
- MIC of B7-005 (E. coli ATCC 25922; 20% (v/v) human serum in MH medium, 18 h at 37°C, mode of n = 3): 2 µM
- MIC of B7-005 (E. coli ATCC 25922; 20–30% (v/v) human serum): 2 µM
- MIC of B7-005 (E. coli ATCC 25922; 25% (v/v) human serum in MH medium, 18 h at 37°C, mode of n = 3): 2 µM
- MIC of B7-005 (E. coli ATCC 25922; 30% (v/v) human serum in MH medium, 18 h at 37°C, mode of n = 3): 2 µM
- MIC of B7-005 (E. coli ATCC 25922; 40% (v/v) human serum in MH medium, 18 h at 37°C, mode of n = 3): 4 µM
- MIC of B7-005 (E. coli ATCC 25922; 50% (v/v) human serum in MH medium, 18 h at 37°C, mode of n = 3): 8 µM
- concentration up to which there were no detectable effects (HUVECs): ≥ 128 µM
- IC50 (HUVECs; MTS, HESFM + 10% FBS, n ≥ 9): ~256 µM
- proteolytic degradation by serum proteases [1]: excluded rapid proteolytic degradation
